According to article PMC4678037 (Neuropharmacology, 2015):
Like-named read-outs stand apart in the source and are kept apart here. Marks after values point to notes of the source that are not given here.

How the values were obtained:
[1] = Whole brain uptake of radioligand; format: in vivo, cynomolgus monkeys (Macaca fascicularis); conditions: i.v. bolus of radioligand, 42 PET measurements
CB1R [2] = conditions: binding to CB1R; ref Donohue et al., 2008a,b; cited from earlier work
body weight [3] = experiment: Body weight loss in mice on ad lib. 'cafeteria' diet, 3 wks repeated p.o.; format: in vivo, mouse; conditions: approximate, vehicle-corrected, AZ data on file
[4] = cited from earlier work
[5] = system: body weight / suicidality; conditions: ref FDA, 2007, cited from earlier work
mCB1R = mCB1R (Mus musculus, UniProt P47746); format: biochemical
mCB1R, sequence (P47746 whole entry): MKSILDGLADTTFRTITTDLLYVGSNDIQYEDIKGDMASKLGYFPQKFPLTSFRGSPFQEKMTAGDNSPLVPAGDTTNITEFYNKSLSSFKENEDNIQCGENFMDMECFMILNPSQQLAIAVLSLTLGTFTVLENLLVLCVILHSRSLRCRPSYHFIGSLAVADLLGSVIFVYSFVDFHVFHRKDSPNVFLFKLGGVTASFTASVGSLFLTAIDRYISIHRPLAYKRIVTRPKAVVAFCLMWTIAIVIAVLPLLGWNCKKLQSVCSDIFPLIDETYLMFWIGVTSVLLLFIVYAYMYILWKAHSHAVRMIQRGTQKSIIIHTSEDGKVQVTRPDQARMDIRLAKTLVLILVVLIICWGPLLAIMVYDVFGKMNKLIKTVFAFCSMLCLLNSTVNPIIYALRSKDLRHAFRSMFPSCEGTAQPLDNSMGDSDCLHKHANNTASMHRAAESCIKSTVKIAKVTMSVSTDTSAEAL

CB1R [6] = experiment: Change in [11C]SD5024 binding in pons after CB1R antagonists; format: in vivo, cynomolgus monkeys (Macaca fascicularis)
hCB1R = hCB1R (Homo sapiens, UniProt P21554); format: biochemical
hCB1R, sequence (P21554 whole entry): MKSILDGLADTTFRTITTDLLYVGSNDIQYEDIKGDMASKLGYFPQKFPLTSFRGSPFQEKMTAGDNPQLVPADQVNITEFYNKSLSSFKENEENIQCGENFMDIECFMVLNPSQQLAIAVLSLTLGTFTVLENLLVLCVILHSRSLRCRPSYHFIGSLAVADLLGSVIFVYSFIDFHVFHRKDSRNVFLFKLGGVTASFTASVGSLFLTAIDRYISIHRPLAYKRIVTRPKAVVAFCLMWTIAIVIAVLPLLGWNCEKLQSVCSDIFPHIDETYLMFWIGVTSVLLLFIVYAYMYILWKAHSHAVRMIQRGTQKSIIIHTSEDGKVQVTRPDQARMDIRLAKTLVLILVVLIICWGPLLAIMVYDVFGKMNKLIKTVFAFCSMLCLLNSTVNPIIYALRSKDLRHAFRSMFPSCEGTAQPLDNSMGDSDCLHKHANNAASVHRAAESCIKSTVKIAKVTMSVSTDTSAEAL

CB1R [7] = experiment: PET CB1R occupancy with [11C]SD5024 in striatum
CB1R [8] = conditions: across species, ref Fong et al., 2007, Burns et al., Addy et al., 2008a, Proietto et al., 2010, Aronne et al., Hadcock et al.; cited from earlier work
body weight [9] = experiment: 10-day Phase I Multiple Ascending Dose; format: in vivo, human; conditions: 10-day Phase I MAD; doses giving plasma concentrations comparable to ~20–30% brain CB1R occupancy; AZ data on file

For `N#Cc1ccc(S(=O)(=O)N=C(N)N2CC(c3ccccc3)C(c3ccc(Cl)cc3)=N2)cc1` (stereo not drawn) [[^11C]SD5024], the “Peak radioactivity in brain (range)” value [1] is given as 2.6 to 4.2 % ID, the IC50 (CB1R [2]) is given as 2.8 nM and the Ki (CB1R [2]) is given as 0.5 nM.
For `Cc1c(C(=O)NN2CCCCC2)nn(-c2ccc(Cl)cc2Cl)c1-c1ccc(Cl)cc1` [Rimonabant, 5-(4-Chlorophenyl)-1-(2,4-dichloro-phenyl)-4-methyl-N-(piperidin-1-yl)-1H-pyrazole-3-carboxamide], the “Maximal in vivo body weight loss (% of baseline)” value (body weight [3]) is listed as ~20% of baseline, the Protein bound ([4]; ref FDA, 2007) is listed as greater than 99.9% and the “Suicidality in the clinic” value ([5]; 5 mg dose vs. selected 20 mg dose) is listed as “absence of a detectable rise in suicidality”. The “Weight loss in the clinic” value ([5]; 5 mg dose) was “significant (albeit modest) weight loss”.
In the case of `Cc1c2c(n(-c3ccc(Cl)cc3Cl)c1-c1ccc(OS(=O)(=O)CCC(F)(F)F)cc1)CCN(N1CCCCC1)C2=O` [AZ compound 2, 4-[1-(2,4-Dichlorophenyl)-3-methyl-4-oxo-5-piperidin-1-yl-4,5,6,7-tetrahydro-1H-pyrrolo[3,2-c]pyridin-2-yl]phenyl 3,3,3-trifluoropropane-1-sulfonate], the “Maximal in vivo body weight loss (% of baseline)” value (body weight [3]) is reported as ~30% of baseline, the Ki (mCB1R) is reported as 0.02 ± 0.001 nM and the “AUC50–122min difference compared to baseline” value (from here on “AUC50–122min difference”) (CB1R [6]; 2.0 mg/kg (highest dose)) is reported as −23%. The Ki (hCB1R) was 0.2 ± 0.01 nM, the “Receptor Occupancy” value (CB1R [7]; striatum, 0.06 mg/kg i.v., monkey 2, plasma 0.023 μmol/L, 50–122 min) was 0.6% and the “Receptor Occupancy” value (CB1R [7]; striatum, 0.2 mg/kg i.v., monkey 1, plasma 0.050 μmol/L, 50–122 min) was −10%. For the same compound, the “Receptor Occupancy” value (CB1R [7]; striatum, 0.2 mg/kg i.v., monkey 4, plasma 0.057 μmol/L, 50–122 min) was 9.2%, the “Receptor Occupancy” value (CB1R [7]; striatum, 0.25 mg/kg i.v., monkey 5, plasma 0.083 μmol/L, 50–122 min) was 1.4% and the “Receptor Occupancy” value (CB1R [7]; striatum, 0.3 mg/kg i.v., monkey 2, plasma 0.143 μmol/L, 50–122 min) was 35%. The “Receptor Occupancy” value (CB1R [7]; striatum, 0.6 mg/kg i.v., monkey 5, plasma 0.252 μmol/L, 50–122 min) was 64%, the “Receptor Occupancy” value (CB1R [7]; striatum, 1.0 mg/kg i.v., monkey 4, plasma 0.401 μmol/L, 50–122 min) was 69% and the “Receptor Occupancy” value (CB1R [7]; striatum, 2.0 mg/kg i.v., monkey 1, plasma […], 50–122 min) was 78%.
In the case of `C[C@H](NC(=O)C(C)(C)Oc1ccc(C(F)(F)F)cn1)[C@@H](Cc1ccc(Cl)cc1)c1cccc(C#N)c1` [Taranabant, N-[(2S,3S)-4-(4-Chlorophenyl)-3-(3-cyanophenyl)-2-butanyl]-2-methyl-2-{[5-(trifluoromethyl)-2-pyridinyl]oxy}propanamide, reference compound], the “Maximal in vivo body weight loss (% of baseline)” value (body weight [3]) is listed as ~30% of baseline, the Protein bound ([4]; ref Li et al., 2010) is listed as greater than 98% and the Ki (mCB1R) is listed as 0.01 ± 0.001 nM. For the same compound, the “AUC50–122min difference” value (CB1R [6]; 0.2 mg/kg (highest dose)) was −29%, the “CB1R occupancy that may be sufficient for appetite- and body weight-reducing efficacy” value (CB1R [8]) was 10 to 40% and the “CB1R occupancy at exposures corresponding to those needed for optimal clinical efficacy” value (CB1R [7]; non-human primates, typically around) was 20–30%. The “Receptor Occupancy” value (CB1R [7]; striatum, 0.005 mg/kg i.v., monkey 7, plasma 0.002 μmol/L, 50–122 min) was 1.7%, the “Receptor Occupancy” value (CB1R [7]; striatum, 0.015 mg/kg i.v., monkey 7, plasma 0.010 μmol/L, 50–122 min) was −3.9% and the “Receptor Occupancy” value (CB1R [7]; striatum, 0.05 mg/kg i.v., monkey 1, plasma 0.015 μmol/L, 50–122 min) was 35%. For the same compound, the “Receptor Occupancy” value (CB1R [7]; striatum, 0.2 mg/kg i.v., monkey 1, plasma 0.093 μmol/L, 50–122 min) was 94% and the “Plasma concentration corresponding to 20–30% CB1R occupancy” value (CB1R [7]; striatum, present study) was 0.01 to 0.02 µmol/L.
With `Cc1c(C(=O)NN2CCCCC2)nc(-c2ccc(Cl)cc2Cl)n1-c1ccc(OS(=O)(=O)CCC(F)(F)F)cc1` [AZ compound 1, 4-[2-(2,4-Dichlorophenyl)-5-methyl-4-(piperidin-1-ylcarbamoyl)-1H-imidazol-1-yl]phenyl 3,3,3-trifluoropropane-1-sulfonate] the “Maximal in vivo body weight loss (% of baseline)” value (body weight [3]) was ~23–25% of baseline, the Ki (mCB1R) was 0.03 ± 0.002 nM and the “Effect on body weight” value (body weight [9]) was “tended to reduce body weight”. The “AUC50–122min difference” value (CB1R [6]; 6.0 mg/kg (highest dose)) was −20%, the Ki (hCB1R) was 0.19 ± 0.01 nM and the “Receptor Occupancy” value (CB1R [7]; striatum, 0.03 mg/kg i.v., monkey 1, plasma 0 μmol/L, data for 50–93 min) was 0.4 ^* %. For the same compound, the “Receptor Occupancy” value (CB1R [7]; striatum, 0.3 mg/kg i.v., monkey 1, plasma 0.038 μmol/L, 50–122 min) was 35%, the “Receptor Occupancy” value (CB1R [7]; striatum, 0.3 mg/kg i.v., monkey 2, plasma 0.055 μmol/L, data for 50–93 min) was 23 ^* % and the “Receptor Occupancy” value (CB1R [7]; striatum, 1.0 mg/kg i.v., monkey 2, plasma 0.154 μmol/L, 50–122 min) was 73%. The “Receptor Occupancy” value (CB1R [7]; striatum, 2.0 mg/kg i.v., monkey 3, plasma 0.999 μmol/L, 50–122 min) was 88% and the “Receptor Occupancy” value (CB1R [7]; striatum, 6.0 mg/kg i.v., monkey 3, plasma 2.220 μmol/L, 50–122 min) was 99%.
In the case of `Cc1c2c(n(-c3ccc(F)cc3Cl)c1-c1ccc(OS(=O)(=O)CCC(F)(F)F)cc1)CCN(N1CCCCC1)C2=O` [AZ compound 3, 4-[1-(2-Chloro-4-fluorophenyl)-3-methyl-4-oxo-5-piperidin-1-yl-4,5,6,7-tetrahydro-1H-pyrrolo[3,2-c]pyridin-2-yl]phenyl 3,3,3-trifluoropropane-1-sulfonate], the “Maximal in vivo body weight loss (% of baseline)” value (body weight [3]) is reported as ~30% of baseline, the Ki (mCB1R) is reported as 0.03 ± 0.002 nM and the “AUC50–122min difference” value (CB1R [6]; 0.6 mg/kg (highest dose)) is reported as −23%. For the same compound, the Ki (hCB1R) was 0.24 ± 0.01 nM, the “Receptor Occupancy” value (CB1R [7]; striatum, 0.02 mg/kg i.v., monkey 4, plasma 0.001 μmol/L, 50–122 min) was −18% and the “Receptor Occupancy” value (CB1R [7]; striatum, 0.06 mg/kg i.v., monkey 3, plasma […], 50–122 min) was 0.7%. The “Receptor Occupancy” value (CB1R [7]; striatum, 0.06 mg/kg i.v., monkey 4, plasma 0.020 μmol/L, 50–122 min) was −12%, the “Receptor Occupancy” value (CB1R [7]; striatum, 0.2 mg/kg i.v., monkey 4, plasma 0.084 μmol/L, 50–122 min) was 14% and the “Receptor Occupancy” value (CB1R [7]; striatum, 0.4 mg/kg i.v., monkey 3, plasma 0.245 μmol/L, 50–122 min) was 59%. The “Receptor Occupancy” value (CB1R [7]; striatum, 0.6 mg/kg i.v., monkey 4, plasma 0.275 μmol/L, 50–122 min) was 82%.
